The record followed here is patent US6949544B2, “Inhibitors of c-Jun N-terminal kinases (JNK) and other protein kinases” (Vertex Pharmaceuticals Incorporated, priority 2001, dated 2005).

What all share (format): biochemical
Test [1] has as its target T1, activated JNK3 (Homo sapiens, UniProt P53779).
T1 construct: One such construct encodes amino acid residues Ser40-Glu402 of JNK3α1 and is preceded by Met and Gly residues; Met-Gly (initiator methionine and added glycine) (N); made in house; host or cells: E. coli BL21 (DE3)
Briefly: JNK inhibition assay (spectrophotometric coupled-enzyme assay). Conditions: for pKi: 10 nM activated JNK3, 10 μM ATP, read-out: Activity in the JNK3 Inhibition Assay (Ki rating A-C). In short, it runs like this:
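Activated (doubly phosphorylated, MKK7(DD)-activated) human JNK3, 10 nM, preincubated 10 min at 30 °C with inhibitor in 0.1 M HEPES pH 7.5, 10 mM MgCl2, 200 μM EGF receptor peptide, PK/LDH-coupled. Started with 10 μM ATP; A340 decrease followed at 30 °C. Ki from competitive inhibition model fit.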

For test [2], the target named is T2, full length recombinant human Src kinase (Homo sapiens, UniProt P12931).
T2 construct: full length recombinant human Src kinase; purchased Upstate Biotechnology 14-117; host or cells: baculo viral cells (baculovirus expression)
The test can be described thus: Src inhibition assay (33P incorporation into poly Glu-Tyr). Conditions: for pKi: 10 μM ATP, read-out: Activity in the SRC Inhibition Assay (Ki rating A-C); for inhibition at 2 µM: at a 2 μM inhibitor concentration, read-out: Activity in the SRC Inhibition Assay (percent inhibition rating D-F). The protocol: The compounds were assayed as inhibitors of full length recombinant human Src kinase (from Upstate Biotechnology, cat. no. 14-117) expressed and purified from baculo viral cells. Src kinase activity was monitored by following the incorporation of ^33P from ATP into the tyrosine of a random poly Glu-Tyr polymer substrate of composition, Glu:Tyr=4:1 (Sigma, cat. no. P-0275). The following were the final concentrations of the assay components: 0.05 M HEPES, pH 7.6, 10 mM MgCl2, 2 mM DTT, 0.25 mg/ml BSA, 10 μM ATP (1-2 μCi ^33P-ATP per reaction), 5 mg/ml poly Glu-Tyr, and 1-2 units of recombinant human Src kinase. In a typical assay, all the reaction components with the exception of ATP were pre-mixed and aliquoted into assay plate wells. […] The assay plate was incubated at 30° C. for 10 min before initiating the reaction with ^33P-ATP. After 20 min of reaction, the reactions were quenched with 150 μl of 10% trichloroacetic acid (TCA) containing 20 mM Na3PO4. The quenched samples were then transferred to a 96-well filter plate (Whatman, UNI-Filter GF/F Glass Fiber Filter, cat no. 7700-3310) installed on a filter plate vacuum manifold. Filter plates were washed four times with 10% TCA containing 20 mM Na3PO4 and then 4 times with methanol. 200 μl of scintillation fluid was then added to each well. The plates were sealed and the amount of radioactivity associated with the filters was quantified on a TopCount scintillation counter.

Test [3] addresses Glycogen Synthase Kinase 3 (GSK-3) (Homo sapiens, UniProt P49841). Briefly: GSK-3 inhibition assay (standard coupled enzyme assay). The following applies: 60 nM GSK-3, 10 μM ATP; read-out: GSK-3 Inhibitory Activity (Ki rating A-C). The protocol:
Compounds were screened in the following manner for their ability to inhibit Glycogen Synthase Kinase 3 (GSK-3) using a standard coupled enzyme assay (Fox et al (1998) Protein Sci 7, 2249). To an assay stock buffer solution containing 0.1M HEPES 7.5, 10 mM MgCl2, 25 mM NaCl, 2.5 mM phosphoenolpyruvate, 300 μM NADH, 1 mM DTT, 30 μg/mL pyruvate kinase, 10 μg/mL lactate dehydrogenase, 300 μM peptide (HSSPHQp-SEDEEE, American Peptide, Sunnyvale, Calif.), and 60 nM GSK-3, was added a 30 μM solution of the compound in DMSO and the resulting mixture incubated at 30° C. for 5 min. The reaction was initiated by the addition of 10 μM ATP. The rates of reaction were obtained by monitoring absorbance at 340 nm over a 5 minute read time at 30° C. using a Molecular Devices plate reader (Sunnyvale, Calif.). The IC50 was determined from the rate data as a function of inhibitor concentration.

Test [4] concerns the target CDK-2/Cyclin A (Homo sapiens, UniProt P24941). Briefly: CDK2 inhibition assay (standard coupled enzyme assay). The following applies: 25 nM CDK-2/Cyclin A; read-out: CDK2 Inhibitory Activity (Ki rating A-C). In short, it runs like this: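 CDK-2/Cyclin A (25 nM final) started the reaction after 10-min, 30° C preincubation of compound (30 μM final) with peptide (100 μM), ATP and coupling enzymes in HEPES pH 7.5.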

Molecules are shown by their SMILES. pKi: −log10 of the molar value.

T1 sequence (P53779 40-402): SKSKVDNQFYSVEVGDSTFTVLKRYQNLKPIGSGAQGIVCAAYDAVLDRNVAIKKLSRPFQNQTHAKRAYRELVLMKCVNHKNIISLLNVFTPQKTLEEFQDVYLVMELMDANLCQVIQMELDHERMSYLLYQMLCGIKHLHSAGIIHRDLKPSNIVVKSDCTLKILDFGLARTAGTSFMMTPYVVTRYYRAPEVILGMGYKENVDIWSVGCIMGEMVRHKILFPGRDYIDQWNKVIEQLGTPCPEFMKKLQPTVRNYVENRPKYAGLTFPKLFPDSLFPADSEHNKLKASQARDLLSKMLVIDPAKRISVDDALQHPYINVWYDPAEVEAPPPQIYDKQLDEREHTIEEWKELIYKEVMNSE
Chain of Glycogen Synthase Kinase 3 (GSK-3) (P49841 whole entry): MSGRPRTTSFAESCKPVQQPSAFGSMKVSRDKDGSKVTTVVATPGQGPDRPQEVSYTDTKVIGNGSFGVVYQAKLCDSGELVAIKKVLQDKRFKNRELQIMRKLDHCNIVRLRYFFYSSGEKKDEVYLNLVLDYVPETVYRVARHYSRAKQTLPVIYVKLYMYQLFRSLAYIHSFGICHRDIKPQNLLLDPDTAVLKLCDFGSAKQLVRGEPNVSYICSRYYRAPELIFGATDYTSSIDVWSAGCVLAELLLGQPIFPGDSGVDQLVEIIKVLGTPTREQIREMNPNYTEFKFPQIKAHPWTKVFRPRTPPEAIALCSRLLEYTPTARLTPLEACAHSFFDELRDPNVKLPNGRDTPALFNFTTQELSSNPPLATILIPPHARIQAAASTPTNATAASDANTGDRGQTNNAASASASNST
T2 sequence (P12931 whole entry): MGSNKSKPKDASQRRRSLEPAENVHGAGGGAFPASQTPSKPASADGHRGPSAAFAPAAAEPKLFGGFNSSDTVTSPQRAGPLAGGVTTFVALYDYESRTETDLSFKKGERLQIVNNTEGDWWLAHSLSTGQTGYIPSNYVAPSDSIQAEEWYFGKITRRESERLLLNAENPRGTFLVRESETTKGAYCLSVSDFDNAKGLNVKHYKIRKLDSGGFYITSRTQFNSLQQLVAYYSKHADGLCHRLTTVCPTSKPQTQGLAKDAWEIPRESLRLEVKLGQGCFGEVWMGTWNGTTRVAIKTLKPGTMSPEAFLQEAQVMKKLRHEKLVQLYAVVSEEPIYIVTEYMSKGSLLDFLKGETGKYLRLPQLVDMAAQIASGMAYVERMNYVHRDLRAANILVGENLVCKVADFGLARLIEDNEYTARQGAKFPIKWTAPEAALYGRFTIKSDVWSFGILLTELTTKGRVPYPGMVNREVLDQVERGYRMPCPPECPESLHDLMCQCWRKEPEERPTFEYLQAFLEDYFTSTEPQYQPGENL

The pKi is the Ki on a negative log10 scale, so that one unit is a factor of ten. As to `COc1cc(-c2ccnc(Nc3ccc(Cl)cc3)n2)cc(OC)c1OC` [Compound I-1], the negative-log Ki (pKi) was 6.00 to 7.00 in test [1], less than 6.00 in test [2], less than 6.00 in test [3] and less than 5.30 in test [4].

Regarding `COc1cc(-c2ccnc(NC3CCCCC3)n2)cc(OC)c1OC` [Compound I-4], the pKi is 6.00 to 7.00 in test [1], less than 6.00 in test [2], less than 6.00 in test [3] and less than 5.30 in test [4].

What is called inhibition is how much of the control response was suppressed. Turning to `COc1cc(Nc2nccc(-c3cc(OC)c(OC)c(OC)c3)n2)cc(OC)c1` [Compound I-12], the results for the pKi in test [1], in test [3] and in test [4] were greater than 7.00, 6.00 to 7.00 and less than 5.30, respectively. Besides, the inhibition at 2 µM in test [2] is less than 33%.

Regarding `COc1c(Br)cc(-c2ccnc(Nc3cccc(F)c3)n2)cc1Br` [Compound I-48], the pKi in test [1] and in test [3] was 6.00 to 7.00 in each case. Also, the inhibition at 2 µM in test [2] is 24 to 66%.

On to `COc1cc(-c2ccnc(Nc3cccc(Br)c3)n2)cc(OC)c1OC` [Compound I-59], for which the pKi in test [1] was greater than 7.00; in test [3], greater than 7.00; in test [4] it was less than 5.30. For the same molecule, the inhibition at 2 µM in test [2] is 67 to 100%.

For `COc1cc(-c2ccnc(Nc3ccc4ccccc4c3)n2)cc(OC)c1OC` [Compound I-62], the pKi was greater than 7.00 in test [1] and 6.00 to 7.00 in test [3]. Besides, in test [2], the inhibition at 2 µM is less than 33%.

Regarding `COc1ccc(Nc2nccc(-c3cc(OC)c(OC)c(OC)c3)n2)cc1OC` [Compound I-64], in test [1] (at a 2 μM inhibitor concentration), the “Activity in the JNK3 Inhibition Assay (percent inhibition rating D-F)” value is “F (percent inhibition of between 67% and 100%)”. Further, the inhibition at 2 µM in test [2] lay within 67 to 100%. The pKi in test [3] was 6.00 to 7.00.

With `COc1cc(-c2ccnc(Nc3cccc(Cl)c3)n2)cc2c1OCCO2` [Compound I-75], the pKi in test [1] and in test [3] was greater than 7.00 throughout. Besides, the inhibition at 2 µM in test [2] lay within 67 to 100%.

In the case of `COc1ccc(-c2cccc(Cl)c2)cc1Nc1nccc(-c2ccc(OC)c(OC)c2OC)n1` [II-65], the negative logarithm of the Ki (pKi) is 6.00 to 7.00 in test [2] and less than 6.00 in test [3].

As to `COc1ccc(-c2ccnc(Nc3cc(-c4cccc(Cl)c4)ccc3F)n2)c(OC)c1OC` [II-66], the negative logarithm of the Ki (pKi) in test [2] and in test [3] was less than 6.00 each time.

With `COc1ccc(Nc2nccc(-c3ccc(OC)c(OC)c3OC)n2)cc1-c1cccc(Cl)c1` [II-67], the pKi in test [2] and in test [3] was greater than 7.00 each time.

For `COc1ccc(Nc2nccc(-c3ccc(OC)c(OC)c3OC)n2)cc1-c1ccc(Cl)cc1` [II-68], the negative-log Ki (pKi) in test [2] is 6.00 to 7.00; in test [3], greater than 7.00.

With `COc1ccc(Nc2nccc(-c3ccc(OC)c(OC)c3OC)n2)cc1-c1cccc(F)c1` [II-69], the pKi in test [2] and in test [3] was greater than 7.00 throughout.
